From US20240182531A1, “KV1.3 Blockers” (priority 2021, published 2024)
“And” between values parts separate entries of the source, which are not always exact repeats. Equal values may be shown once. Read-outs that look alike come from different tables or passages of the source. Where a SMILES comes first, the peptide text is derived from it. Bridges are numbered along the chain shown (N, C = ends). [ ]: non-standard residue; d: D form. Nle = CCCC[C@H](N)C(=O)O

Tests used:
human Kv1.1 = target: T1, human Kv1.1 (Homo sapiens, UniProt Q09470); test: cell-based
T1 construct: expressed in transfected cells; host or cells: CHO
T1 sequence (Q09470 whole entry): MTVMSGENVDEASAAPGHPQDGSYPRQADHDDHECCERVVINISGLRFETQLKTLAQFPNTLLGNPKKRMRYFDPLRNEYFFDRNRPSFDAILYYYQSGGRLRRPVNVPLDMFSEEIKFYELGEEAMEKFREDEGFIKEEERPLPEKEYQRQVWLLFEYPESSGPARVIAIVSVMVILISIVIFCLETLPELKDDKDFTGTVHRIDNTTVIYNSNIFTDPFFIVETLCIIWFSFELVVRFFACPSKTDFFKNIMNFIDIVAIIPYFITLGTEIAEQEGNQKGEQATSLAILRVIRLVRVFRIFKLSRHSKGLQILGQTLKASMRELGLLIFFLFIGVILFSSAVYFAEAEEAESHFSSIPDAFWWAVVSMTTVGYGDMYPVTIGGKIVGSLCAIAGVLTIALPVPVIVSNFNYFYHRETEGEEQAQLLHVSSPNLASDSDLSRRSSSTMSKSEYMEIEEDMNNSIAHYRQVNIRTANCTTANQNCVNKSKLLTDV

human Kv1.2 = target: T2, human Kv1.2 (Homo sapiens, UniProt P16389); test: cell-based
T2 construct: expressed in transfected cells; host or cells: CHO
T2 sequence (P16389 whole entry): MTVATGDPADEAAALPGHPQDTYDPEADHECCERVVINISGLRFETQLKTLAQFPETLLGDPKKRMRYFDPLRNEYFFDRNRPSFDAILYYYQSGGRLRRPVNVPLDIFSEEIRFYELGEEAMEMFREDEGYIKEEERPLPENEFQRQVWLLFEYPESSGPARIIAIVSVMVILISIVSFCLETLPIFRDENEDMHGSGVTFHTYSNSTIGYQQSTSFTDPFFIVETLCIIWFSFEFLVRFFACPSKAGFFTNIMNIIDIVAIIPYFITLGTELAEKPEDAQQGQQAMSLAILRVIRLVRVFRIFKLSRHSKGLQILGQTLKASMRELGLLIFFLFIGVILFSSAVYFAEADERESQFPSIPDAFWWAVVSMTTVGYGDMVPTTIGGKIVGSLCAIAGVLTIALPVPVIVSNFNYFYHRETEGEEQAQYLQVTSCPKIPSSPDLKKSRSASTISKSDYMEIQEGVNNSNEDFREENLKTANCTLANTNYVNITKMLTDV

human Kv1.6 = target: T3, human Kv1.6 (Homo sapiens, UniProt P17658); test: cell-based
T3 construct: expressed in transfected cells; host or cells: CHO
T3 sequence (P17658 whole entry): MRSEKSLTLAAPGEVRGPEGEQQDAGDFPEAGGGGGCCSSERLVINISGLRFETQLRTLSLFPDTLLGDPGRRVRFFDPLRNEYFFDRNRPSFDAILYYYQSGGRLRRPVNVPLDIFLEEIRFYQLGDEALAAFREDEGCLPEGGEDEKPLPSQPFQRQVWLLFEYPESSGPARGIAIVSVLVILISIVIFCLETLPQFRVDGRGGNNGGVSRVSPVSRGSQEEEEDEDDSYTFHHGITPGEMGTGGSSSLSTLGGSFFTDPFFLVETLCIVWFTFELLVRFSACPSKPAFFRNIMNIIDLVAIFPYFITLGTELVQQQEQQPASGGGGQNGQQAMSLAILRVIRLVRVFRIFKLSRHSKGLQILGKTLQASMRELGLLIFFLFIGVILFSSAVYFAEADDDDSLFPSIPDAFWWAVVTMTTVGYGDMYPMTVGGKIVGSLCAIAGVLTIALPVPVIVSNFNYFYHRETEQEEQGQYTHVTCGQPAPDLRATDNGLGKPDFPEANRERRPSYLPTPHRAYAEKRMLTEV

[1] = test system: Human peripheral blood mononuclear cells (PBMCs); assay type: cell-based; conditions: geometric mean, at least 4 replicates, Example 5a; for IC50: read-out: anti-CD3 PBMC/IL-2 IC50
Method: Human peripheral blood mononuclear cells (PBMCs) were used to assess the effects of Kv1.3 blocker reference compounds on T-cell activation as determined by IL-2 (cytokine) release after stimulation with anti-CD3.
Human PBMCs were obtained from Precision for Medicine (Frederick, MD). Cells from 5 donors were used. Plate-bound anti-CD3 was used to stimulate bulk T cells in the PBMC preparations. Briefly, 96-well plates were coated with anti-CD3 antibody for 2 hrs at 37° C., using 50 μL of a 0.5 μg/mL anti-CD3 solution diluted in 1×PBS. Thereafter the plates were washed twice.
Kv1.3 blockers as shown in Table 8a were diluted in medium (RPMI 1640 with Glutamax-I containing 10% v/v Fetal Bovine Serum, 1% v/v penicillin-streptomycin solution) and added in a volume of 100 μL at concentrations ranging from 0.01 pM to 100 nM (tenfold dilutions). […] Finally, 1×10^5 PBMCs were added to each well in a volume of 100 μL, giving a final volume of 200 μL per well. The plates were incubated for 20-24 hours in a 37 °C/5% CO2 incubator. After centrifugation of the plates, 25 μl supernatant was transferred to IL-2 detection plates (MSD Human IL-2 Tissue Culture Kit, cat #K151AHB-2) and IL-2 was measures as described by the manufacturer (Meso Scale Discovery, Rockville, Maryland, USA).
Results are shown in Table 8a as geometric mean of IC50 values obtained from anti-CD3 stimulated human PBMC assays. All values derive from at least 4 replicates.

[2] = target: T4, human Kv1.3 voltage-gated K+ channel (Homo sapiens, UniProt P22001); test: Kv1.3 blocker activity in FLIPR thallium assay; assay type: cell-based
T4 construct: host or cells: CHO-DUKX
T4 sequence (P22001 whole entry): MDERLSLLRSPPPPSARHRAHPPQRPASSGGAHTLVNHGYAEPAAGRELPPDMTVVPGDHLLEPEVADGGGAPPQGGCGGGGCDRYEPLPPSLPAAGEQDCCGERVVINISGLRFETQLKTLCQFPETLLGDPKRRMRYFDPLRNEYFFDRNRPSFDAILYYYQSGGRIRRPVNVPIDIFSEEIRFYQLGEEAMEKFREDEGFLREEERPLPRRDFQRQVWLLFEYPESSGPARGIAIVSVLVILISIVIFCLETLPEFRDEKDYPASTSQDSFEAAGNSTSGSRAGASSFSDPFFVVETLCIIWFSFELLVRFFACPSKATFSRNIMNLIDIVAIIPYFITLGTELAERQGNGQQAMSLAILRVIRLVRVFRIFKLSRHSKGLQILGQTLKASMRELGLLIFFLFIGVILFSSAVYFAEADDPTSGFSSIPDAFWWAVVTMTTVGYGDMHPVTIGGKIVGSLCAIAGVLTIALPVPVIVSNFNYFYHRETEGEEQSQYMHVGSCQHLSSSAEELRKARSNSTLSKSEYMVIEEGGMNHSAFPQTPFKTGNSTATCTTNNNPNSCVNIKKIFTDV
Method: A human Kv1.3 voltage-gated K+ channel cell line was purchased from Perkin Elmer (#TDS-AX-010-C-1). The cell line is based on CHO-DUKX cells stably transfected with the human Kv1.3 voltage-gated K+ channel.
The cell line was grown in MEMα with nucleotides, GlutaMAX (Gibco #32571028), 10% Foetal Bovine Serum (FBS), 0.4 mg/ml Geneticin, 100 units/ml Penicillin, and 100 μg/ml Streptomycin and seeded at 10.000 cells/well in black poly-D-lysine-coated 96 well plates.
The FluxOR™ Potassium Ion Channel Assay (Invitrogen #F10016) was used to quantitate flux of thallium ions into the cells as a response to Kv1.3 activation with a stimulus buffer causes depolarization of the cell membrane, thereby generating a fluorescent signal, proportional to channel activity. The assay was performed as described by the assay kit manufacturer including a compound pre-incubation step (30 min, 37° C., 5% CO2) in assay buffer containing 0.02% W/v casein from bovine milk (Sigma #C4765) prior to cell membrane depolarization using a final stimuli buffer composition corresponding to 0.2× FluxOR™ chloride-free buffer, 5 mM K2SO4, 1 mM Tl2SO4. The fluorescence responses were recorded and quantified (maximum response at 50 s, 37° C.) using the FLIPR® Tetra High Throughput Screening System (Molecular Devices, Inc.).
IC50 can be regarded as a measure of potency of inhibition for the respective compound. The IC50 value is a measure of the concentration of an inhibitor required to achieve half of that compound's maximal inhibition of ion channel activity in a given assay.

[3] = Pharmacokinetic characterisation after single s.c. injection in Sprague Dawley rats; conditions: male, rat, plasma, sc, 100 nmol/kg
Method: Sprague Dawley (males with a body weight of approximately 250-350 g) were given a single subcutaneous (s.c.) injection of each peptide to be tested.
Following s.c. administration of the selected compounds (dose 100 nmol/kg, dosing volume either 2 mL/kg), blood samples were drawn at 5 min, 15 min, 30 min, 60 min, 2 h, 3 h, 4 h, 6 h, 8 h post-dose. At each sampling time point, samples from the rats were drawn by sublingual bleeding. After last sampling the rats were sacrificed by O2/CO2 anaesthesia. The dosing vehicle was 10 mM phosphate, 0.8% NaCl, 0.05% Polysorbate 20 (pH 6.0).
Plasma samples were analyzed after solid phase extraction (SPE) by liquid chromatography mass spectrometry (LC-MS/MS). Mean plasma concentrations were used for calculation of the pharmacokinetic parameters using the non-compartmental approach in Phoenix WinNonlin 6.4 or a later version. Plasma terminal elimination half-life (T½) was determined as In(2)/λz where λz is the magnitude of the slope of the log linear regression of the log concentration versus time profile during the terminal phase. AUCinf is the area under the plasma concentration—time curve extrapolated to infinity (AUCinf=AUClast+Clast/λz, where Clast is the last observed plasma concentration). Cmax is the maximum observed concentration, occurring at Tmax.

Rat whole blood = Rat whole blood (Rattus norvegicus, UniProt P15384); assay type: cell-based; conditions: IL-17A release, thapsigargin, 24 Hr, at least 2 replicates
Sequence of Rat whole blood (P15384 whole entry): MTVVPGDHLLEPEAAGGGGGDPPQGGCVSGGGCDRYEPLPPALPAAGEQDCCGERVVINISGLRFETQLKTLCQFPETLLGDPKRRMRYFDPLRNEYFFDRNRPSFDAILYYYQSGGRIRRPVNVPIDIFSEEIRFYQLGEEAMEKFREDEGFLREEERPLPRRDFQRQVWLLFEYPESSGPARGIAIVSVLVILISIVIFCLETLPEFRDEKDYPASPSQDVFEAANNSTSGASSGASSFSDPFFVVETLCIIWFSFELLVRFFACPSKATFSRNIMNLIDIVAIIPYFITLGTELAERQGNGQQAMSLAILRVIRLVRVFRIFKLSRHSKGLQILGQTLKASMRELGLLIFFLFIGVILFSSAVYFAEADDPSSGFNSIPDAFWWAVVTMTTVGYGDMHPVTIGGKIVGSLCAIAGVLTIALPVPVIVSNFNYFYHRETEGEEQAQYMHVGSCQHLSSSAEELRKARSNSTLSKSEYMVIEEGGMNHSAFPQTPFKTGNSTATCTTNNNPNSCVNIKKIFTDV

[4] = test system: KLH ear inflammation model in rats; assay type: in vivo, rat; conditions: 100 nmol/kg SC 24 hrs prior to KLH ear challenge; +/− SD
[5] = ratio of patch clamp IC50 values

Row | SMILES | Selectivity ratio Kv1.1/Kv1.3 (human Kv1.1) | Selectivity ratio Kv1.2/Kv1.3 (human Kv1.2) | Selectivity ratio Kv1.6/Kv1.3 (human Kv1.6) | anti-CD3 PBMC/IL-2 IC50 [1] | IC50 [2] | AUC(0-inf) [3] | Cmax [3] | half-life [3] | Selectivity ratio Kv1.1/Kv1.3 (human Kv1.1; [5]) | Selectivity ratio Kv1.2/Kv1.3 (human Kv1.2; [5]) | Selectivity ratio Kv1.6/Kv1.3 (human Kv1.6; [5]) | IC50 (Rat whole blood) | % inhibition of ear thickness (AUC of Δ ear thickness 0-48 hours) [4] | IC50 [1]
1 | CC[C@H](C)[C@H](N)C(=O)N[C@@H](CC(N)=O)C(=O)N[C@H](C(=O)N[C@@H](CCCCN)C(=O)N[C@H]1CSSC[C@@H]2NC(=O)[C@H](CCCCN)NC(=O)CNC(=O)[C@H](Cc3ccccc3)NC(=O)[C@H](CCCNC(=N)N)NC(=O)[C@H](CCSC)NC(=O)CNC(=O)[C@H](C)NC(=O)[C@H](CC(=O)O)NC(=O)[C@H](CCCCN)NC(=O)[C@@H]3CSSC[C@@H](C(=O)N[C@@H](Cc4ccc(O)cc4)C(=O)N[C@@H](CO)C(=O)O)NC(=O)[C@H](CCCNC(=N)N)NC(=O)[C@H](CSSC[C@H](NC(=O)[C@H](CCC(N)=O)NC(=O)[C@H](CCC(N)=O)NC(=O)[C@@H]4CCCN4C(=O)[C@H](CC(C)C)NC(=O)[C@H](CO)NC1=O)C(=O)N[C@@H]([C@@H](C)CC)C(=O)N[C@@H](CCCCN)C(=O)N1CCC[C@H]1C(=O)N3)NC(=O)[C@H](CCCCN)NC(=O)[C@H](CCCCN)NC(=O)[C@H](CC(N)=O)NC(=O)[C@H](CCSC)NC2=O)C(C)C [Moka1] | >300 | 31 | >300 | less potent in inhibiting IL-2 secretion | – | – | – | – | – | – | – | – | – | –
2 | CCCC[C@H](NC(=O)[C@@H]1CCCN1)C(=O)N[C@@H](CCC(=O)O)C(=O)N[C@@H](CCCC)C(=O)N[C@@H](CCCNC(=N)N)C(=O)N[C@H]1CSSC[C@@H]2NC(=O)[C@H](CCCCN)NC(=O)CNC(=O)[C@H](Cc3ccccc3)NC(=O)[C@H]([C@@H](C)CC)NC(=O)[C@H](CO)NC(=O)CNC(=O)[C@H]([C@@H](C)CC)NC(=O)[C@H](C)NC(=O)[C@H](C)NC(=O)[C@H](CC(C)C)NC(=O)[C@@H]3CSSC[C@@H](C(=O)N[C@@H](Cc4ccc(O)cc4)C(=O)N4CCC[C@H]4C(=O)N[C@@H](CCCNC(=N)N)C(=O)O)NC(=O)[C@H](CCCCN)NC(=O)[C@H](CSSC[C@H](NC(=O)[C@H](CCC(=O)O)NC(=O)[C@H](C(C)C)NC(=O)[C@H](CO)NC(=O)[C@H](C)NC(=O)[C@H](Cc4c[nH]cn4)NC1=O)C(=O)N[C@@H](CCCCN)C(=O)N[C@@H](CCC(N)=O)C(=O)N[C@@H](CCCCN)C(=O)N3)NC(=O)[C@H](CCCCN)NC(=O)[C@H](CCCCN)NC(=O)[C@H](CC(N)=O)NC(=O)[C@H](CCCC)NC2=O [compound 4] (H-P[Nle]E[Nle]RCHASVECKQKCLAAIGSIFGKC[Nle]NKKCKCYPR-OH; disulfide 6-27, 12-32, 16-34) | – | – | – | – | 0.15 nM | 0.138 µM·h | 91.8 nM | 2.7 h | – | – | – | – | – | –
3 | CCCC[C@H](NC(=O)[C@@H]1CCCN1)C(=O)N[C@@H](CCC(=O)O)C(=O)N[C@@H](CCCC)C(=O)N[C@@H](CCCNC(=N)N)C(=O)N[C@H]1CSSC[C@@H]2NC(=O)[C@H](CCCCN)NC(=O)CNC(=O)[C@H](Cc3ccccc3)NC(=O)[C@H]([C@@H](C)CC)NC(=O)[C@H](CO)NC(=O)CNC(=O)[C@H]([C@@H](C)CC)NC(=O)[C@H](C)NC(=O)[C@H](C)NC(=O)[C@H](CC(C)C)NC(=O)[C@@H]3CSSC[C@@H](C(=O)N[C@@H](Cc4ccc(O)cc4)C(=O)N4CCC[C@H]4C(=O)N[C@@H](CCCNC(=N)N)C(=O)O)NC(=O)[C@H](CCCCN)NC(=O)[C@H](CSSC[C@H](NC(=O)[C@H](CCC(=O)O)NC(=O)[C@H](C(C)C)NC(=O)[C@H](CO)NC(=O)[C@H](C)NC(=O)[C@H](CO)NC1=O)C(=O)N[C@@H](CCCCN)C(=O)N[C@@H](CCC(N)=O)C(=O)N[C@@H](CCCCN)C(=O)N3)NC(=O)[C@H](CCCCN)NC(=O)[C@H](CCCCN)NC(=O)[C@H](CC(N)=O)NC(=O)[C@H](CCCC)NC2=O [compound 14] (H-P[Nle]E[Nle]RCSASVECKQKCLAAIGSIFGKC[Nle]NKKCKCYPR-OH; disulfide 6-27, 12-32, 16-34) | – | – | – | – | – | 0.183 µM·h | 103 nM | 1 h | >9100 | 3384 | >9100 | 0.43 nM | 37.7% and 42.5% | –
4 | CCCC[C@@H]1NC(=O)[C@@H]2CSSC[C@H](NC(=O)[C@H](CCCNC(=N)N)NC(=O)[C@H](CCSC)NC(=O)[C@H](CC(=O)O)NC(=O)[C@H](CCSC)NC(=O)[C@@H](N)CC(N)=O)C(=O)N[C@@H](CO)C(=O)N[C@@H](C)C(=O)N[C@@H](CO)C(=O)N[C@@H](C(C)C)C(=O)N[C@@H](CCC(=O)O)C(=O)N[C@H]3CSSC[C@H](NC(=O)[C@H](CCCCN)NC(=O)[C@H](CCCCN)NC(=O)[C@H](CC(N)=O)NC1=O)C(=O)N[C@@H](CCCCN)C(=O)N[C@H](C(=O)N[C@@H](Cc1ccc(O)cc1)C(=O)N1CCC[C@H]1C(=O)N[C@@H](CCCNC(=N)N)C(N)=O)CSSC[C@H](NC(=O)[C@H](CCCCN)NC(=O)[C@H](CCC(N)=O)NC(=O)[C@H](CCCCN)NC3=O)C(=O)N[C@@H](CC(C)C)C(=O)N[C@@H](CCCCN)C(=O)N[C@@H](C)C(=O)N[C@@H]([C@@H](C)CC)C(=O)NCC(=O)N[C@@H](CO)C(=O)N[C@@H]([C@@H](C)CC)C(=O)N[C@@H](Cc1ccccc1)C(=O)NCC(=O)N[C@@H](CCCCN)C(=O)N2 [compound 21] (H-NMDMRCSASVECKQKCLKAIGSIFGKC[Nle]NKKCKCYPR-NH2; disulfide 6-27, 12-32, 16-34) | – | – | – | – | – | – | – | – | >12600 | 561 | 10360 | – | – | 0.05 nM
5 | CC[C@H](C)[C@@H]1NC(=O)[C@H](C)NC(=O)[C@H](CCCCN)NC(=O)[C@H](CC(C)C)NC(=O)[C@@H]2CSSC[C@@H](C(=O)N[C@@H](Cc3ccc(O)cc3)C(=O)N3CCC[C@H]3C(=O)N[C@@H](CCCNC(=N)N)C(N)=O)NC(=O)[C@H](CCCCN)NC(=O)[C@@H]3CSSC[C@H](NC(=O)[C@H](CCC(=O)O)NC(=O)[C@H](C(C)C)NC(=O)[C@H](CO)NC(=O)[C@H](C)NC(=O)[C@H](CO)NC(=O)[C@@H](NC(=O)[C@H](CCCNC(=N)N)NC(=O)[C@H](CCSC)NC(=O)[C@H](CC(=O)O)NC(=O)[C@H](CCSC)NC(=O)[C@@H](N)CC(N)=O)CSSC[C@H](NC(=O)[C@H](CCCCN)NC(=O)CNC(=O)[C@H](Cc4ccccc4)NC(=O)[C@H]([C@@H](C)CC)NC(=O)[C@H](CO)NC(=O)CNC1=O)C(=O)N[C@@H](CCSC)C(=O)N[C@@H](CC(N)=O)C(=O)N[C@@H](CCCCN)C(=O)N[C@@H](CCCCN)C(=O)N3)C(=O)N[C@@H](CCCCN)C(=O)N[C@@H](C(C)C)C(=O)N[C@@H](CCCCN)C(=O)N2 [compound 22] (H-NMDMRCSASVECKVKCLKAIGSIFGKCMNKKCKCYPR-NH2; disulfide 6-27, 12-32, 16-34) | – | – | – | – | – | – | – | – | >7200 | 159 | 2182 | 0.88 nM | – | 0.4 nM
